“And” between values parts separate entries of the source, which are not always exact repeats. Identical values can stand only once. Toxic doses and inconclusive results are not listed. Rule as the data show it: active = T/C of 150% or more; inactive = T/C below 125%.
System: L1210 leukemia ip in BDF1 mice, survival T/C
Experiment: NCI In Vivo Anticancer Drug Screen. Data for tumor model L1210 Leukemia (intraperitoneal) in B6D2F1 (BDF1) mice
Conditions: endpoint: mean survival time, higher = longer survival
Summary of the method: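 Tumor was transplanted into mice, which were then dosed with test compound or vehicle alone. Survival was recorded for each group, and the treated figure was expressed relative to the control figure.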

[1] = dose: 200.0 mg/kg/injection, schedule: Q01DX009 (ip), vehicle: saline with Tween-80
[2] = dose: 100.0 mg/kg/injection, schedule: Q04DX003 (ip), vehicle: Klucel (hydroxypropylcellulose) (HPC)
[3] = dose: 200.0 mg/kg/injection, schedule: Q04DX003 (ip), vehicle: Klucel (hydroxypropylcellulose) (HPC)
[4] = dose: 400.0 mg/kg/injection, schedule: Q04DX003 (ip), vehicle: Klucel (hydroxypropylcellulose) (HPC)
[5] = dose: 100.0 mg/kg/injection, schedule: Q04DX003 (ip), vehicle: saline with Tween-80
[6] = dose: 200.0 mg/kg/injection, schedule: Q04DX003 (ip), vehicle: saline with Tween-80
[7] = dose: 400.0 mg/kg/injection, schedule: Q04DX003 (ip), vehicle: saline with Tween-80
[8] = dose: 100.0 mg/kg/injection, schedule: Q01DX001 (ip), vehicle: saline
[9] = dose: 100.0 mg/kg/injection, schedule: Q01DX009 (ip), vehicle: Klucel (hydroxypropylcellulose) (HPC)
[10] = dose: 200.0 mg/kg/injection, schedule: Q01DX009 (ip), vehicle: Klucel (hydroxypropylcellulose) (HPC)
[11] = dose: 400.0 mg/kg/injection, schedule: Q01DX009 (ip), vehicle: Klucel (hydroxypropylcellulose) (HPC)
[12] = dose: 100.0 mg/kg/injection, schedule: Q01DX009 (ip), vehicle: saline
[13] = dose: 100.0 mg/kg/injection, schedule: Q04DX003 (ip), vehicle: saline
[14] = dose: 200.0 mg/kg/injection, schedule: Q04DX003 (ip), vehicle: saline
[15] = dose: 400.0 mg/kg/injection, schedule: Q04DX003 (ip), vehicle: saline
[16] = dose: 100.0 mg/kg/injection, schedule: Q01DX009 (ip), vehicle: saline with Tween-80
[17] = dose: 400.0 mg/kg/injection, schedule: Q01DX009 (ip), vehicle: saline with Tween-80

Measured: T/C

CC(C)CC(NC(=O)c1ccccc1)C(=O)O (centres undefined)
inactive: [1] 88 % of control | dose: 264.0 mg/kg/injection, schedule: Q01DX009 (ip), vehicle: saline with Tween-80 97 % of control | dose: 600.0 mg/kg/injection, schedule: Q01DX009 (ip), vehicle: saline with Tween-80 92 % of control

CC(=O)NC(=O)Nc1ccccc1
inactive: [2] 94 % of control | [3] 103 % of control | [4] 95 % of control

CCCCOB(CCl)OCCCC
inactive: dose: 6.25 mg/kg/injection, schedule: Q04DX003 (ip), vehicle: saline sonified 103 % of control | dose: 12.5 mg/kg/injection, schedule: Q04DX003 (ip), vehicle: saline sonified 97 % of control | dose: 25.0 mg/kg/injection, schedule: Q04DX003 (ip), vehicle: saline sonified 100 % of control

CC1CCCCN1C(=O)CCCCl (centres undefined)
inactive: dose: 100.0 mg/kg/injection, schedule: Q04DX002 (ip), vehicle: saline 111 % of control | dose: 200.0 mg/kg/injection, schedule: Q04DX002 (ip), vehicle: saline 101 % of control | dose: 400.0 mg/kg/injection, schedule: Q04DX002 (ip), vehicle: saline 88 % of control

O=C1N/C(=N\OCc2ccccc2Cl)CC(NOCc2ccccc2Cl)N1 (centres undefined)
inactive: [5] 91 % of control | [6] 97 % of control | [7] 95 % of control

C[C@]12C(=O)OC(=O)[C@H]1[C@H]1CC[C@@H]2C1
inactive: [8] 110 % of control | dose: 100.0 mg/kg/injection, schedule: Q01DX009 (ip), vehicle: acetone 102 % of control | dose: 100.0 mg/kg/injection, schedule: Q04DX003 (ip), vehicle: acetone 104 % of control | dose: 200.0 mg/kg/injection, schedule: Q01DX001 (ip), vehicle: saline 106 % of control | dose: 200.0 mg/kg/injection, schedule: Q01DX009 (ip), vehicle: acetone 89 % of control | dose: 200.0 mg/kg/injection, schedule: Q04DX003 (ip), vehicle: acetone 101 % of control | dose: 400.0 mg/kg/injection, schedule: Q01DX001 (ip), vehicle: saline 111 % of control | dose: 400.0 mg/kg/injection, schedule: Q04DX003 (ip), vehicle: acetone 104 % of control

O=C(Nc1ccc(Cl)cc1)Nc1cccc2ccccc12
inactive: [9] 91 % of control | [2] 94 % of control | [10] 89 % of control | [3] 94 % of control | [11] 97 % of control | [4] 93 % of control

Cn1ccc(=O)[nH]c1=O
inactive: [2] 96 % of control | [3] 89 % of control | [4] 115 % of control

Cc1nccnc1N
inactive: dose: 25.0 mg/kg/injection, schedule: Q01DX009 (ip), vehicle: saline 112 % of control | dose: 50.0 mg/kg/injection, schedule: Q01DX009 (ip), vehicle: saline 110 % of control | [12] 95 % of control and 108 % of control | [13] 98 % of control | [14] 109 % of control | [15] 102 % of control

OC(c1ccccc1)(c1ccccc1)c1cccnc1
inactive: dose: 75.0 mg/kg/injection, schedule: Q04DX002 (ip), vehicle: saline 105 % of control | dose: 150.0 mg/kg/injection, schedule: Q04DX002 (ip), vehicle: saline 93 % of control

C[N+](C)(CC(=O)Nc1ccc(Cl)c(C(F)(F)F)c1)CC(=O)c1ccc(Cl)c(Cl)c1
inactive: dose: 100.0 mg/kg/injection, schedule: Q04DX003 (ip), vehicle: saline sonified 97 % of control | dose: 200.0 mg/kg/injection, schedule: Q04DX003 (ip), vehicle: saline sonified 111 % of control | dose: 400.0 mg/kg/injection, schedule: Q04DX003 (ip), vehicle: saline sonified 100 % of control

CC(C)=C1C2CCC1C(CO)C2CO (centres undefined)
inactive: [9] 95 % of control | [2] 102 % of control | [10] 102 % of control | [3] 100 % of control | [11] 104 % of control | [4] 96 % of control

CN(C)CCCN(C)CCCCN(C)CCCN(C)C
inactive: [8] 96 % of control

Cc1nnc(NC(=O)NCCCl)s1
inactive: [2] 100 % of control | [3] 107 % of control | [4] 118 % of control

O=C(O)Cc1ccc(C2CCCCC2)cc1
inactive: dose: 37.5 mg/kg/injection, schedule: Q01DX Z (ip), vehicle: carboxymethylcellulose (CMC) 98 % of control | dose: 75.0 mg/kg/injection, schedule: Q01DX Z (ip), vehicle: carboxymethylcellulose (CMC) 95 % of control | dose: 150.0 mg/kg/injection, schedule: Q01DX Z (ip), vehicle: carboxymethylcellulose (CMC) 102 % of control | dose: 300.0 mg/kg/injection, schedule: Q01DX Z (ip), vehicle: carboxymethylcellulose (CMC) 102 % of control

C1CCN2CC3CC(CN4CCCCC34)C2C1 (centres undefined)
inactive: dose: 10.0 mg/kg/injection, schedule: Q01DX009 (ip), vehicle: saline 104 % of control | dose: 20.0 mg/kg/injection, schedule: Q01DX009 (ip), vehicle: saline 102 % of control | dose: 20.0 mg/kg/injection, schedule: Q04DX003 (ip), vehicle: saline 100 % of control | dose: 40.0 mg/kg/injection, schedule: Q01DX009 (ip), vehicle: saline 100 % of control | dose: 40.0 mg/kg/injection, schedule: Q04DX003 (ip), vehicle: saline 96 % of control

O=C(O)C1CCCCC1C(=O)Nc1ccccc1C(F)(F)F (centres undefined)
inactive: [16] 98 % of control | [5] 105 % of control | [1] 90 % of control | [6] 100 % of control | [17] 94 % of control | [7] 100 % of control

Cc1ccc(/C=N/N)s1
inactive: dose: 100.0 mg/kg/injection, schedule: Q04DX003 (ip), vehicle: other 92 % of control | dose: 200.0 mg/kg/injection, schedule: Q04DX003 (ip), vehicle: other 99 % of control

C1=C(N2CCCCC2)C2CCC1C2 (centres undefined)
inactive: dose: 75.0 mg/kg/injection, schedule: Q01DX001 (ip), vehicle: saline 99 % of control

CCOC(=O)Nc1cccc(Cl)c1Cl
inactive: [5] 101 % of control | [6] 98 % of control | [7] 93 % of control

COC(=O)c1n[nH]c(C(C)C)c1N=NN(C)C
inactive: dose: 50.0 mg/kg/injection, schedule: Q01DX009 (ip), vehicle: saline with Tween-80 116 % of control | [5] 116 % of control | dose: 132.0 mg/kg/injection, schedule: Q04DX003 (ip), vehicle: saline with Tween-80 111 % of control | [6] 119 % of control | dose: 300.0 mg/kg/injection, schedule: Q04DX003 (ip), vehicle: saline with Tween-80 111 % of control | [7] 96 % of control

CCCCSCC(N)C(=O)OC (centres undefined)
inactive: [12] 96 % of control | [13] 106 % of control | dose: 200.0 mg/kg/injection, schedule: Q01DX009 (ip), vehicle: saline 101 % of control | [14] 100 % of control | dose: 400.0 mg/kg/injection, schedule: Q01DX009 (ip), vehicle: saline 112 % of control | [15] 97 % of control

Nc1cncnc1N
inactive: dose: 30.0 mg/kg/injection, schedule: Q01DX Z (ip), vehicle: saline 101 % of control | dose: 60.0 mg/kg/injection, schedule: Q01DX Z (ip), vehicle: saline 103 % of control | dose: 120.0 mg/kg/injection, schedule: Q01DX Z (ip), vehicle: saline 100 % of control | dose: 240.0 mg/kg/injection, schedule: Q01DX Z (ip), vehicle: saline 97 % of control

Cc1ccc(OCC(=O)O)c(Cl)c1
inactive: [9] 104 % of control | [10] 94 % of control

NC(=S)N/N=C(/C(=O)O)c1ccc([N+](=O)[O-])cc1
inactive: dose: 100.0 mg/kg/injection, schedule: Q01DX001 (ip), vehicle: Klucel (hydroxypropylcellulose) (HPC) 93 % of control | [2] 104 % of control | dose: 200.0 mg/kg/injection, schedule: Q01DX001 (ip), vehicle: Klucel (hydroxypropylcellulose) (HPC) 115 % of control | [3] 98 % of control | dose: 400.0 mg/kg/injection, schedule: Q01DX001 (ip), vehicle: Klucel (hydroxypropylcellulose) (HPC) 96 % of control | [4] 93 % of control

C/C(=N\NS(=O)(=O)c1ccc(C)cc1)C1CCSC1 (centres undefined)
inactive: [16] 93 % of control | [5] 111 % of control | [1] 101 % of control | [6] 98 % of control | [17] 90 % of control | [7] 96 % of control
